This data set is described as follows: in vitro. The note with it: human, hela cells, % viability.

In general, viability refers to a read-out of living cells in per cent, often relative to untreated cells. As for `Nc1ccc(NC(=O)c2ccc(NC(=O)c3cnc(-c4ccccc4)c(-c4ccncc4)c3)cc2)cc1` [CBK037463], the viability at 28.5 h, 10 µM came out at 101%.
Consider `N#C/C(=C\c1cn(-c2ccccc2)nc1-c1ccc(S(=O)(=O)N2CCCCC2)cc1)c1nc2ccccc2c(=O)[nH]1` [CBK266268], for which the viability at 28.5 h, 10 µM worked out at 101%.
For the compound `O=C1NC2(CCN(C(=O)Cc3ccc(-c4ccccc4)cc3)CC2)Nc2ccccc21` [CBK286309], the viability at 28.5 h, 10 µM stood at 101%.
In the case of `COc1cc(Br)c(/C=C(/C#N)C(=O)Nc2ccc(O)cc2)cc1OC` [CBK262733], the viability at 28.5 h, 10 µM amounted to 79.9%.
Next, `Cc1nnc2sc(-c3ccccc3NC(=S)NC(=O)c3cc4ccccc4o3)nn12` [CBK268845]: 103%; `COc1ccc(-c2cnn(-c3cncnc3)n2)cc1` [CBK112763]: 94.5%; `CC1CCN(Cc2ccc(-c3nnn(CC(=O)NCc4ccc(O)cc4)n3)cc2)CC1` [CBK144156C]: 90.9%.
Next, `O=c1ccc2c(-c3cccc(OCc4ccccc4)c3)ccnc2[nH]1` [CBK073739]: 87.6%; `Cc1ncsc1CCOc1cc(NC(C)C)ncn1` [CBK115884]: 84.8%.
Turning to `c1ccc(-c2cnc(C3CCCCC3)o2)cc1` [CBK008192], the viability at 28.5 h, 10 µM was 83.1%.
The figure for `Cc1oc(NC(=O)CN2CCN(c3ccccn3)CC2)c(C#N)c1C` [CBK236456] is 96.9%; for `NS(=O)(=O)c1ccc(C(=O)Nc2cccc3cc[nH]c23)cc1` [CBK160094] it is 94.8%; for `COc1cc([N+](=O)[O-])cc(CN2CCN(CCO)CC2)c1O` [CBK261851] it is 92.4%.
The figure for `O=C1CCCN1CP(=O)(O)CN1CCCCC1` [CBK262302] is 85.6%; for `CC(C)(C)NC(=O)CNS(=O)(=O)c1ccccc1` [CBK265807] it is 85.5%.
Regarding `Cc1nc[nH]c1CN(Cc1cccc(F)c1)CC1CCCO1` (stereo not drawn) [CBK282525], the viability at 28.5 h, 10 µM worked out at 105%.
Next, `CN1CCC(N(C)C/C(Cl)=C/c2ccccc2)CC1` [CBK261903]: 92.1%.
Next, `Cc1ccc(O)c(NC(=S)NC(=O)COc2ccccc2)c1` [CBK264373]: 106%; `N#Cc1ccnc(SCC(=O)Nc2ccc(CN3CCOCC3)cc2)c1` [CBK306010]: 103%.
Next, `Cc1ccc(Nc2nc(N(C)C)nc3[nH]ncc23)cc1` [CBK288098]: 108%.
Turning to `CC(C)n1c(=O)c2c(-c3cc(C(C)(C)C)no3)ncn2c2ccccc21` [CBK016666], the viability at 28.5 h, 10 µM stood at 86.6%.
The figure for `Cc1ccccc1NC(=O)Nc1ccc(OCc2ccccc2)cc1` [CBK262861] is 108%.
Next, `CSc1ccc(-c2cnc3nc(N)ccc3c2)cc1` [CBK081169]: 85.2%; `CCNC(=O)N1CCc2c([nH]c3ccc(OC)cc23)C12CCN(CCOc1ccccc1)C2` (stereo not drawn) [CBK061690]: 93%; `CC(C)(CNC(=O)Cn1cc(C(=O)Nc2ccc(F)cc2)ccc1=O)c1cccc(F)c1` [CBK286079]: 99.6%.
Next, `CCOc1cc(NC2CCN(C(=O)CC3(O)CCCCC3)CC2)ncn1` [CBK304141]: 81.6%; `COc1ccc(CNS(=O)(=O)c2cc(OCC(N)=O)c(C)cc2Cl)cc1` [CBK266495]: 110%; `Cc1ccccc1-n1nc(C)c(CN(C)CC2CCN(C)C2)c1C` (stereo not drawn) [CBK283035]: 82.6%.
Turning to `FC(F)(F)c1cccc(Sc2cccc3ccccc23)n1` [CBK091449], the viability at 28.5 h, 10 µM stood at 94.8%.
The figure for `CC(=O)Nc1cc(C)c(C)cc1NC(C)=O` [CBK025366] is 97.5%; for `CC(C)(C)NC(=O)CN1CCC(c2ccccc2F)CC1` [CBK283499] it is 92.1%; for `O=C(O)c1cccc(S(=O)(=O)Nc2ccccc2C(=O)NCc2ccccc2)c1` [CBK296697] it is 106%.
For `COCCN1CCN(C(=O)NCCc2c(C)[nH]c3ccc(Cl)cc23)CC1` [CBK307637], the viability at 28.5 h, 10 µM was 85%.
The figure for `CCc1c(C(=O)N(C)Cc2cnn(C(C)C)c2)[nH]c2ccccc12` [CBK307501] is 92.9%; for `CCOc1ccc(S(=O)(=O)N2CCN(Cc3cc(C(=O)OC)n(C)c3)CC2)c2cccnc12` [CBK062796] it is 92.6%; for `O=C(O)C1CCN(C(=O)Nc2ccccc2Cl)CC1` [CBK161407] it is 106%.
Take `CC1CCN(C(=O)C2CCCCC2C(=O)O)CC1` (stereo not drawn) [CBK028392]: the viability at 28.5 h, 10 µM came out at 107%.
Turning to `CC(=O)N1CCC2(C/C=C/C[C@H]3CN(C(=O)CCC4CCCC4)CC[C@H]3NC(=O)CNC2=O)CC1` [CBK292111], the viability at 28.5 h, 10 µM came to 87%.
The figure for `Cc1c(C(=O)N2CCn3c(C)nnc3C2)sc2cccc(F)c12` [CBK304923] is 87.5%.
The figure for `CCC(C)CS(=O)(=O)c1nc(C)c(C)n1CC1CCCO1` (stereo not drawn) [CBK305107] is 114%.
Next, `Cc1oc(C(C)(C)C)cc1C(=O)Nc1ccc(C(F)(F)F)cc1` [CBK057251]: 87%; `COc1ccc(C2=NN(c3ccc([N+](=O)[O-])cc3)C(=O)/C2=C\c2cccc(OC)c2OC)cc1` [CBK264475]: 96%; `Cc1ccc2c(c1)CCCN2C(=O)c1cnc2c(c1)c(C)nn2C` [CBK305670]: 96%.
Take `O=C(CSc1nnc(-c2ccncc2)n1-c1ccccc1)N/N=C/c1c[nH]c2ccc(Br)cc12` [CBK262816]: the viability at 28.5 h, 10 µM turned out to be 91.5%.
Take `O=C(Cn1cnnn1)N1CCc2ccccc21` [CBK200367]: the viability at 28.5 h, 10 µM came out at 97.4%.
Next, `Cn1c(=O)c2[nH]c(N3CCN(c4cccc(O)c4)CC3)nc2n(C)c1=O` [CBK269760]: 104%; `O=C(CCC(=O)c1ccc(Cl)cc1)OCC(=O)c1cccc(I)c1` [CBK264760]: 89.9%; `CCn1c(CN2CCOCC2)nnc1SCC(=O)Nc1cc(Cl)ccc1C` [CBK270183]: 93.8%.
Next, `COC(=O)c1cccc2c1ncc1c(=O)nc(N)sc12` [CBK291214]: 101%; `O=C(CN1C2CCC1CC(O)(c1ccco1)C2)NCc1ccccc1` (stereo not drawn) [CBK284105]: 94.5%; `Cc1ccc2c(c1)c(NS(C)(=O)=O)nn2Cc1ccc(C#N)cc1` [CBK048643]: 94.2%.
Next, `NCCCOc1cc(N2CCCC2)ncn1` [CBK115285]: 106%; `O=C(Cc1ccc(-c2ccccc2)cc1)NCc1cccnc1` [CBK262591]: 86.4%; `O=C1N=C(NC2CC3CCC2C3)SC12CCCO2` (stereo not drawn) [CBK116312]: 110%.
Turning to `C[C@H](Nc1nc(-c2cccc3ncccc23)cnc1N)c1ccccc1` [CBK063771], the viability at 28.5 h, 10 µM is 97.6%.
Next, `COc1cc(OC)c(S(=O)(=O)N2CCOCC2)cc1S(=O)(=O)N1CCOCC1` [CBK267564]: 98.1%.
The figure for `CCCc1c(C(=O)N2CCN(c3ncccn3)CC2)cnn1-c1cc(Cl)cc(Cl)c1` [CBK107383] is 102%; for `CCOC(=O)c1cccc(NS(=O)(=O)c2ccc(Br)cc2)c1` [CBK034346] it is 97.7%.
The figure for `CC(C(=O)NCCc1ccncc1)n1cnc2ccccc21` (stereo not drawn) [CBK282202] is 103%.
On to `COc1ccccc1-c1nccnc1NCC(C)O` (stereo not drawn) [CBK037637], for which the viability at 28.5 h, 10 µM amounted to 90.4%.
For the compound `c1ccc2c(c1)CCCN2Cc1nc2ccccc2[nH]1` [CBK138329], the viability at 28.5 h, 10 µM worked out at 107%.
The figure for `Cc1cc(NCc2ccccc2)nc2[nH]nc(N)c12` [CBK287931] is 87.7%; for `O=C(NC1CC2(CCOCC2)Oc2ccccc21)c1ccco1` (stereo not drawn) [CBK285378] it is 98%.
For `Cc1nn(CCS(C)(=O)=O)c(C)c1CN1CCOC(c2ccccc2)C1` (stereo not drawn) [CBK306162], the viability at 28.5 h, 10 µM was 80.4%.
Consider `COc1ccccc1N1CCN(C(=O)Nc2ccc(Cl)cc2)CC1` [CBK155597], for which the viability at 28.5 h, 10 µM stood at 94.5%.
The figure for `O/N=C1/CCCCCC1NO` (stereo not drawn) [CBK264368A] is 107%; for `Brc1ccc(-n2cnnn2)cc1` [CBK027696] it is 110%.
Next, `CC(C)NC(=O)CN(CCO)Cc1cc(Br)ccc1F` [CBK304944]: 90.7%; `COc1ccc(OC)c(C2CC(c3ccc(NS(C)(=O)=O)cc3)=NN2C(=O)CCC(=O)O)c1` (stereo not drawn) [CBK297781]: 107%; `COc1ccccc1CN(C)C(C)C(=O)Nc1ccc(S(N)(=O)=O)cc1` (stereo not drawn) [CBK305839]: 90.1%.
Next, `Cc1onc(-c2ccccc2)c1CNC(=O)CC1CCCCC1` [CBK144078]: 89.1%; `COc1cccc(CN(Cc2ccco2)Cc2cncn2C)c1` [CBK282497]: 102%; `CCCc1cc(C(N)=O)c(NC(=O)c2sc3ccccc3c2Cl)s1` [CBK268178]: 103%.
As for `O=C(Nc1nnc(-c2ccncc2)o1)c1ccc(Cl)cc1Cl` [CBK287433], the viability at 28.5 h, 10 µM is 82.3%.
Next, `O=C(C1=C(O)C(=O)N(Cc2cccnc2)C1c1cccnc1)c1ccccc1` (stereo not drawn) [CBK264522]: 99.5%; `CN(c1ccccc1)c1cc(-c2cccc(O)c2)nc2ccnn12` [CBK037121]: 91%.
Next, `CC(=O)Nc1cc(I)cc(C(=O)O)c1` [CBK026452G]: 104%.
As for `Cc1ccc(C(=O)Nc2ccc3[nH]ccc3c2)cc1Cl` [CBK159677], the viability at 28.5 h, 10 µM is 85.5%.
Next, `COc1ccc([C@@]23CCC(NC(=O)Nc4cc(C(F)(F)F)ccc4F)C[C@@H]2N(C)CC3)cc1OC` (stereo partly drawn) [CBK047552T]: 87.2%; `COc1cccc2sc(Nc3nnc(-c4cccs4)o3)nc12` [CBK287473]: 85.4%; `COc1ccc(S(=O)(=O)N(C)CC(=O)Nc2ccc(C(N)=O)cc2)cc1C` [CBK267278]: 88%.

(Values after paper PMC12040169 (PLOS Biology, 2025).)
